These molecules were tested against T1, Tyrosine-protein phosphatase non-receptor type 1 (Homo sapiens, UniProt P18031) (assay: Inhibition of PTP1B (unknown origin) pre-incubated for 10 mins before addition of p-nitrophenyl phosphate substrate and measured 30 mins post substrate addition).
T1 sequence (P18031 whole entry): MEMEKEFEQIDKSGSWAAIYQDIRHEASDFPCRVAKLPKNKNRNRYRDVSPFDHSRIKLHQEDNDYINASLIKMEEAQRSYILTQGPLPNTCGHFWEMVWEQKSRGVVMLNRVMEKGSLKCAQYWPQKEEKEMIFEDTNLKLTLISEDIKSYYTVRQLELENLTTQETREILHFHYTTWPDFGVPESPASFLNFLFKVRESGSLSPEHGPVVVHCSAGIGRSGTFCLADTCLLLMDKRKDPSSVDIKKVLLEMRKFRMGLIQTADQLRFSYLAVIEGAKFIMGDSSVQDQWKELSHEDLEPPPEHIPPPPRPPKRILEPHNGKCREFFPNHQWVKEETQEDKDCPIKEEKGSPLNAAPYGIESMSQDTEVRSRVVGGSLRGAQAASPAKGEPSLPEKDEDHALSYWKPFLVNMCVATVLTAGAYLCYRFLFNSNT

Compound | IC50
CCO[C@H]1OC[C@]23CCC[C@]1(C)[C@@H]2CC[C@]1(C)[C@@H]3CC[C@](C)(O)[C@H]1Cc1cc(O)ccc1O | 8.7 µM
CO[C@H]1OC[C@]23CCC[C@]1(C)[C@@H]2CC[C@]1(C)[C@@H]3CC[C@]2(C)Oc3ccccc3C[C@@H]12 | 8.5 µM
C[C@]12CCC[C@@]3(CO[C@@H]1O)[C@H]2CC[C@]1(C)[C@@H]3CC[C@]2(C)Oc3ccc(O)cc3C[C@@H]12 | 11.9 µM
C[C@]1(CO)CCC[C@@]2(CO)[C@H]1CC[C@]1(C)[C@@H]2CC[C@]2(C)Oc3ccc(O)cc3C[C@@H]12 | 14.8 µM
C[C@]12CCC[C@](C)(C(=O)O)[C@@H]1CC[C@]1(C)[C@@H]2CC[C@]2(C)Oc3ccc(O)cc3C[C@@H]12 [Strongylophorin-3] | 9 µM
C[C@@]12CC[C@@H]3[C@]4(CCC[C@@]3(C)C(=O)OC4)[C@H]1CC[C@]1(C)Oc3ccc(O)cc3C[C@@H]21 [strongylophorine-2] | > 24.4 µM
C[C@@]12CC[C@@H]3[C@]4(CCC[C@]3(C)C(=O)OC4)[C@H]1CC[C@](C)(O)[C@H]2Cc1cc(O)ccc1O [strongylophorine-8] | 21.2 µM

Source: ChEMBL document CHEMBL3608256, “Strongylophorines, new protein tyrosine phosphatase 1B inhibitors, from the marine sponge Strongylophora strongilata collected at Iriomote Island” (Bioorg Med Chem Lett, 2015)
